Active and inactive are the calls of the source. The rule behind the calls is not given here.
Test system: CCRIS mutagenicity, Ames/micronucleus/aberration tests
Test: CCRIS mutagenicity studies
[1] = Test System: AMES SALMONELLA TYPHIMURIUM, Strain/Indicator: TA98, Metabolic Activation: NONE, Method: STANDARD PLATE
[2] = Test System: AMES SALMONELLA TYPHIMURIUM, Strain/Indicator: TA98, Metabolic Activation: RAT, LIVER, S-9, AROCLOR 1254, Method: STANDARD PLATE
[3] = Test System: AMES SALMONELLA TYPHIMURIUM, Strain/Indicator: TA100, Metabolic Activation: NONE, Method: STANDARD PLATE
[4] = Test System: AMES SALMONELLA TYPHIMURIUM, Strain/Indicator: TA100, Metabolic Activation: RAT, LIVER, S-9, AROCLOR 1254, Method: STANDARD PLATE
[5] = Test System: AMES SALMONELLA TYPHIMURIUM, Strain/Indicator: TA1535, Metabolic Activation: NONE, Method: STANDARD PLATE
[6] = Test System: AMES SALMONELLA TYPHIMURIUM, Strain/Indicator: TA1535, Metabolic Activation: RAT, LIVER, S-9, AROCLOR 1254, Method: STANDARD PLATE
[7] = Test System: AMES SALMONELLA TYPHIMURIUM, Strain/Indicator: TA1537, Metabolic Activation: NONE, Method: STANDARD PLATE
[8] = Test System: AMES SALMONELLA TYPHIMURIUM, Strain/Indicator: TA1537, Metabolic Activation: RAT, LIVER, S-9, AROCLOR 1254, Method: STANDARD PLATE
[9] = Test System: AMES SALMONELLA TYPHIMURIUM, Strain/Indicator: TA1538, Metabolic Activation: NONE, Method: STANDARD PLATE
[10] = Test System: AMES SALMONELLA TYPHIMURIUM, Strain/Indicator: TA1538, Metabolic Activation: RAT, LIVER, S-9, AROCLOR 1254, Method: STANDARD PLATE
[11] = Test System: AMES SALMONELLA TYPHIMURIUM, Strain/Indicator: TA98, Metabolic Activation: NONE, Method: PREINCUBATION
[12] = Test System: AMES SALMONELLA TYPHIMURIUM, Strain/Indicator: TA100, Metabolic Activation: NONE, Method: PREINCUBATION

Measured: mutagenic call

O=c1cccc2c1ccc1[nH]c3ccc4ccccc4c3cc12
inactive: Test System: AMES SALMONELLA TYPHIMURIUM, Strain/Indicator: TA100, Metabolic Activation: GUINEA PIG, LIVER, S-9, 3-METHYLCHOLANTHRENE, Method: STANDARD PLATE inactive; negative | Test System: CHINESE HAMSTER V-79, Strain/Indicator: V-79/6-THIOGUANINE, Metabolic Activation: GUINEA PIG, LIVER, S-9, 3-METHYLCHOLANTHRENE inactive; negative

COc1cc(N)cc(OC)c1N
inactive: [1] inactive; negative | [2] inactive; negative | [3] inactive; negative | [4] inactive; negative | [5] inactive; negative | [6] inactive; negative | [7] inactive; negative | [8] inactive; negative | [9] inactive; negative | [10] inactive; negative

O[C@H]1C=Cc2c(ccc3c(Cl)c4ccccc4cc23)[C@@H]1O
active: Test System: AMES SALMONELLA TYPHIMURIUM, Strain/Indicator: TA100, Metabolic Activation: RAT, LIVER, S-9, PCB, Method: STANDARD PLATE active; positive

ON=C1CCCCC1
inactive: Test System: AMES SALMONELLA TYPHIMURIUM, Strain/Indicator: TA97, Metabolic Activation: HAMSTER, LIVER, S-9, AROCLOR 1254 (30%), Method: PREINCUBATION inactive; negative | Test System: AMES SALMONELLA TYPHIMURIUM, Strain/Indicator: TA97, Metabolic Activation: NONE, Method: PREINCUBATION inactive; negative | Test System: AMES SALMONELLA TYPHIMURIUM, Strain/Indicator: TA97, Metabolic Activation: RAT, LIVER, S-9, AROCLOR 1254 (30%), Method: PREINCUBATION inactive; negative | Test System: AMES SALMONELLA TYPHIMURIUM, Strain/Indicator: TA98, Metabolic Activation: HAMSTER, LIVER, S-9, AROCLOR 1254 (30%), Method: PREINCUBATION inactive; negative | Test System: AMES SALMONELLA TYPHIMURIUM, Strain/Indicator: TA98, Metabolic Activation: HAMSTER, LIVER, S-9, AROCLOR 1254, Method: STANDARD PLATE inactive; negative | [11] inactive; negative | [1] inactive; negative | Test System: AMES SALMONELLA TYPHIMURIUM, Strain/Indicator: TA98, Metabolic Activation: RAT, LIVER, S-9, AROCLOR 1254 (30%), Method: PREINCUBATION inactive; negative | [2] inactive; negative | Test System: AMES SALMONELLA TYPHIMURIUM, Strain/Indicator: TA100, Metabolic Activation: HAMSTER LIVER S-9, AROCLOR 1254, Method: PREINCUBATION inactive; negative | Test System: AMES SALMONELLA TYPHIMURIUM, Strain/Indicator: TA100, Metabolic Activation: HAMSTER, LIVER, S-9, AROCLOR 1254 (30%), Method: PREINCUBATION inactive; negative | Test System: AMES SALMONELLA TYPHIMURIUM, Strain/Indicator: TA100, Metabolic Activation: HAMSTER, LIVER, S-9, AROCLOR 1254, Method: STANDARD PLATE inactive; negative | [12] inactive; negative | [3] inactive; negative | Test System: AMES SALMONELLA TYPHIMURIUM, Strain/Indicator: TA100, Metabolic Activation: RAT, LIVER, S-9, AROCLOR 1254 (30%), Method: PREINCUBATION inactive; negative | [4] inactive; negative | Test System: AMES SALMONELLA TYPHIMURIUM, Strain/Indicator: TA1535, Metabolic Activation: HAMSTER, LIVER, S-9, AROCLOR 1254, Method: STANDARD PLATE inactive; negative | [5] inactive; negative | Test System: AMES SALMONELLA TYPHIMURIUM, Strain/Indicator: TA1535, Metabolic Activation: RAT, LIVER, S-9, AROCLOR 1254 (30%), Method: PREINCUBATION inactive; negative | [6] inactive; negative | Test System: AMES SALMONELLA TYPHIMURIUM, Strain/Indicator: TA1537, Metabolic Activation: HAMSTER, LIVER, S-9, AROCLOR 1254, Method: STANDARD PLATE inactive; negative | [7] inactive; negative | [8] inactive; negative | Test System: AMES SALMONELLA TYPHIMURIUM, Strain/Indicator: TA1538, Metabolic Activation: HAMSTER, LIVER, S-9, AROCLOR 1254, Method: STANDARD PLATE inactive; negative | [9] inactive; negative | [10] inactive; negative | Test System: MOUSE LYMPHOMA, Strain/Indicator: L5178Y (TK+/TK-), Metabolic Activation: RAT, LIVER, S-9, AROCLOR 1254, Method: SUSPENSION/PLATE inactive; negative. reevaluation of results: negative
active: Test System: AMES SALMONELLA TYPHIMURIUM, Strain/Indicator: TA1535, Metabolic Activation: HAMSTER LIVER S-9, AROCLOR 1254, Method: PREINCUBATION active; positive | Test System: AMES SALMONELLA TYPHIMURIUM, Strain/Indicator: TA1535, Metabolic Activation: HAMSTER, LIVER, S-9, AROCLOR 1254 (5,10 OR 30%), Method: PREINCUBATION active; positive | Test System: MOUSE LYMPHOMA, Strain/Indicator: L5178Y (TK+/TK-), Metabolic Activation: NONE, Method: SUSPENSION/PLATE active; positive. reevaluation of results: positive

Cc1cccc(C)c1NC(=O)CN1CCCC1=O
inactive: [11] inactive; negative | Test System: AMES SALMONELLA TYPHIMURIUM, Strain/Indicator: TA98, Metabolic Activation: RAT, LIVER, S-9, SODIUM PHENOBARBITAL AND 5,6-BENZOFLAVONE, Method: PREINCUBATION inactive; negative | [12] inactive; negative | Test System: AMES SALMONELLA TYPHIMURIUM, Strain/Indicator: TA100, Metabolic Activation: RAT, LIVER, S-9, SODIUM PHENOBARBITAL AND 5,6-BENZOFLAVONE, Method: PREINCUBATION inactive; negative | Test System: AMES SALMONELLA TYPHIMURIUM, Strain/Indicator: TA1535, Metabolic Activation: NONE, Method: PREINCUBATION inactive; negative | Test System: AMES SALMONELLA TYPHIMURIUM, Strain/Indicator: TA1535, Metabolic Activation: RAT, LIVER, S-9, SODIUM PHENOBARBITAL AND 5,6-BENZOFLAVONE, Method: PREINCUBATION inactive; negative | Test System: AMES SALMONELLA TYPHIMURIUM, Strain/Indicator: TA1537, Metabolic Activation: NONE, Method: PREINCUBATION inactive; negative | Test System: AMES SALMONELLA TYPHIMURIUM, Strain/Indicator: TA1537, Metabolic Activation: RAT, LIVER, S-9, SODIUM PHENOBARBITAL AND 5,6-BENZOFLAVONE, Method: PREINCUBATION inactive; negative | Test System: E. COLI, Strain/Indicator: WP2 UVRA, Metabolic Activation: NONE, Method: PREINCUBATION inactive; negative | Test System: E. COLI, Strain/Indicator: WP2 UVRA, Metabolic Activation: RAT, LIVER, S-9, SODIUM PHENOBARBITAL AND 5,6-BENZOFLAVONE, Method: PREINCUBATION inactive; negative

— PubChem BioAssay AID1259407 (Chemical Carcinogenesis Research Information System (CCRIS), 2018)
